Experimental data reported in US6057371A, “Sigma receptor ligands and the use thereof” (Virginia Commonwealth University, priority 1992, dated 2000).
Values joined by “and” are separate entries in the source; they are usually repeats but may differ in a detail not shown here. Equal values may be shown once. Read-outs that look alike come from different tables or passages of the source.

Assays:
sigma-1 binding site = target: T1, sigma-1 binding site (Cavia porcellus, UniProt Q60492); assay: biochemical; parameters: species or system guinea pig
T1 construct: Guinea pig whole membrane preparations (P2 microsomal fraction); from tissue; host or cells: guinea pig membranes (P2 microsomal fraction), as described by Weber et al; brain inferred from the sister test b489
Protocol: [^3 H]DTG was purchased from DuPont/NEN.
The radioactivity on the filters was determined by scintillation spectrometry at an efficiency of about 50% using Cytoscint (ICN) scintillation fluid.

sigma-2 binding site [1] = target: T2, sigma-2 binding site (Cavia porcellus, UniProt H0V073); assay: biochemical; parameters: species or system guinea pig; conditions: for IC50: Table 17, read-out: IC50 (nM) at sigma-2
T2 construct: Guinea pig whole membrane preparations (P2 microsomal fraction); from tissue; host or cells: guinea pig membranes (P2 microsomal fraction), as described by Weber et al; brain inferred from the sister test b489
T2 sequence (H0V073 1-176): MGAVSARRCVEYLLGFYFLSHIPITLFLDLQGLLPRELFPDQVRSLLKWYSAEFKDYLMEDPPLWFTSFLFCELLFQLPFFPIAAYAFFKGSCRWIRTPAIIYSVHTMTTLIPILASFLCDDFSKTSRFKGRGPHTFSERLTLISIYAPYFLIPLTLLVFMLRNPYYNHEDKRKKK
Protocol: (§4) For the standard equilibrium assay, the mixtures were incubated for 30 min. at room temperature, then filtered and the radioactivity determined as described above.

PCP receptor = PCP receptor binding, ^3 H-MK-801; parameters: species or system rat; conditions: Table 4
Protocol: PCP receptor binding assays against ^3 H-MK-801 were conducted as described by Keana et al., Proc. Natl. Acad. Sci (USA) 86: 5631-5635 (1989); Keana et al., Life Sciences 43: 965-973 (1988). For (+) ^3 H-MK-801 binding, 1 nM of radioligand was incubated with about 100 ug of thawed rat brain membrane protein for 4 hr at room temperature. The assays were carried out in 5 mM Tris/acetate and were stopped by rapid filtration through Whatman GF/B or Schleicher & Schuell no. 32 glass fiber filters (presoaked in 0.05% polyethylenamine).

5-HT1A receptor = target: T3, 5-HT1A receptor (Rattus norvegicus, UniProt P19327); assay: biochemical; assay type: binding; parameters: 47: 529-540 (1986); from tissue; host or cells: brain tissue, inferred from the cited method (rat frontal cortex)
T3 sequence (P19327 1-422): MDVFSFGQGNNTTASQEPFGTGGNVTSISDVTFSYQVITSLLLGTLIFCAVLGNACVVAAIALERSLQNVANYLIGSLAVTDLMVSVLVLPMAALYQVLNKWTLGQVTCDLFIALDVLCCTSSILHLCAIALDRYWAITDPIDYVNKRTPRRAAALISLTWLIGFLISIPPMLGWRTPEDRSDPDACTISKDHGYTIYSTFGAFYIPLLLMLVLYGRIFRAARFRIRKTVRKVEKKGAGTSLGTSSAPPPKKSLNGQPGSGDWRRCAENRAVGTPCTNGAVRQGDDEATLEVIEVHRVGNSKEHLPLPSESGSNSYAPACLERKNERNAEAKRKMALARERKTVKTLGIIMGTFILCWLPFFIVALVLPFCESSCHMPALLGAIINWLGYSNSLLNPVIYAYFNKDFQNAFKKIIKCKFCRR
Protocol: Further sigma receptor binding assays against [^3 H]DTG and 5HT-1A binding assays were conducted according to the procedure outlined in the previous examples.

Dopamine D2 receptor = target: T4, Dopamine D2 receptor (Rattus norvegicus, UniProt P61169); assay: Dopamine D2 receptor binding, [^3 H]domperidone, striatal membranes; conditions: Table 4
T4 construct: Rat striatal membranes were prepared from frozen tissue; from tissue; host or cells: rat striatum, frozen tissue
Protocol: (§1) Dopamine D1 and D2 receptor binding assays were performed as described by Billard et al., Life Sci. 35: 1885-1893 (1984) using [^3 H]SCH-23390 for the D1 receptors and [^3 H]domperidone for the D2 receptors (Baudry et al., Arch. Pharmacol. 308: 231-237 (1979).
(§2) Rat striatal membranes were prepared from frozen tissue by Poltron homogenization in 25 volumes of ice cold Tris-EDTA buffer (50 mM Tris-HCl, 1 mM EDTA, pH 7.4 at 4° C.). The homogenate was centrifuged at 48,000× g for 10 min. at 4° C., and the pellet was resuspended in 25 volumes of the same buffer. This suspension was then incubated at 37° C. for 15 min., followed by recentrifugation as before. The resulting pellet was resuspended in 267 volumes of assay buffer (50 mM Tris-HCl, 120 mM NaCl, 5 mM KCl, 2 mM CaCl2, 1 mM MgCl2, pH 7.4 at 37° C.).
(§3) The binding assays were conducted with 100 uL of [^3 H]SCH-23390 or [^3 H]domperidone (to give about 1 nM final), 100 uL of buffer or drug solution, and 800 uL of membrane suspension (to give about 250 ug of striatal membrane protein per assay). The tubes were incubated at 37° C. for 60 min. The assays were stopped by rapid filtration over Schleicher & Schuell #32 or Whatman GF/B glass fiber filters (presoaked in 0.5% polyethyleneimine for [^3 H]domperidone binding), followed by two 3 mL washes of ice cold buffer using a Brandel cell harvester. After vigorous shaking, the filter disks were counted at 52% efficiency in 5 mL of Cytoscint (ICN).

Dopamine D1 receptor = target: T5, Dopamine D1 receptor (Rattus norvegicus, UniProt P18901); assay: Dopamine D1 receptor binding, [^3 H]SCH-23390, striatal membranes; conditions: Table 4
T5 construct: Rat striatal membranes were prepared from frozen tissue; from tissue; host or cells: rat striatum, frozen tissue
Protocol: as §1, §2, §3

sigma receptor = assay: Sigma receptor binding, [^3 H]DTG, brain membranes (both sigma-1 and sigma-2 sites); parameters: species or system guinea pig; conditions: Table 6; [^3 H]DTG
sigma-2 binding site [2] = assay: biochemical; parameters: species or system guinea pig; conditions: for sigma-1/sigma-2 ratio: Example 9; for ratio of sigma-1/sigma-2 (sigma-2 selective compounds): greater than about 10, see Table 10
Protocol: as §4

[3] = Table 10, read-out: SIGMA-1 KI vs. 3H-PENTAZOCINE MEAN
[4] = Table 12, read-out: IC50 (nM) at sigma-1
[5] = Table 10, read-out: SIGMA-2 KI vs. 3H-DTG + PENTAZOCINE MEAN
[6] = Table 13, read-out: Sigma-1 IC50
[7] = less than about 0.1, see Table 10

T1 sequence (Q60492 whole entry): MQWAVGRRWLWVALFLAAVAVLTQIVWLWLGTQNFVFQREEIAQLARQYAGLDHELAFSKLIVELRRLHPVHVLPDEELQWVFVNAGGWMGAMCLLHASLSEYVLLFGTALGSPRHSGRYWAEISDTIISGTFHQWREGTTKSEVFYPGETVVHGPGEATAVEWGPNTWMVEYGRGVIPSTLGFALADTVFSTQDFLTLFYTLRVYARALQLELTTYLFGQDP
T5 sequence (P18901 whole entry): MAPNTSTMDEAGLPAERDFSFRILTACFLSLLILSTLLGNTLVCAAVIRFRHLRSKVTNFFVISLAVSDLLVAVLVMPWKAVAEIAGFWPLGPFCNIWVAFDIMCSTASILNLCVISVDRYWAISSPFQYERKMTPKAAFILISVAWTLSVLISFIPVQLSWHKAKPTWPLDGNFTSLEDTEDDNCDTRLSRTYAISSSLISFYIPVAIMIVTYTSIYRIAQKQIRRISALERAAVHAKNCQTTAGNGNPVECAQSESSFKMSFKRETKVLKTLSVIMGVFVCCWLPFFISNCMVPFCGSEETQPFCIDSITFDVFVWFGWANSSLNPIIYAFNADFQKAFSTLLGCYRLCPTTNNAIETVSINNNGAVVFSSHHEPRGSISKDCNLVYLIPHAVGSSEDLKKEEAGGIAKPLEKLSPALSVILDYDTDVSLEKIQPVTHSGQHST
T4 sequence (P61169 whole entry): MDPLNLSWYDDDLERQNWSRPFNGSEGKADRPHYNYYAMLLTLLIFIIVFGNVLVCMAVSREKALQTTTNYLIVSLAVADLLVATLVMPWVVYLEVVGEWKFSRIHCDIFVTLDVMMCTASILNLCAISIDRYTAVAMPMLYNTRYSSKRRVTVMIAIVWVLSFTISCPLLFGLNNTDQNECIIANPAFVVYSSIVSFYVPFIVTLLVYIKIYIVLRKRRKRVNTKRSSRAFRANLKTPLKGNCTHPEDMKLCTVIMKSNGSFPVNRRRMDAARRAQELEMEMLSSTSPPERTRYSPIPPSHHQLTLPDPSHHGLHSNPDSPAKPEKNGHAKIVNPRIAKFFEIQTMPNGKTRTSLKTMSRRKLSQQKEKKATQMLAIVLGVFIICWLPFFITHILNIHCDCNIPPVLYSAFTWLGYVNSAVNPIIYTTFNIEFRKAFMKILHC

SMILES	Ki (sigma-1 binding site; [3]) [nM]	S1/S2 Ratio (sigma-1 binding site; Table 10, sigma-1/sigma-2)	Ki (sigma-2 binding site [1]; [5])	IC50 (PCP receptor) [nM]	Ratio 5-HT1A /σ (5-HT1A receptor; Table 5)	IC50 (5-HT1A receptor; Table 5, read-out: 5-HT1A IC50) [nM]	Ratio 5-HT1A /σ (5-HT1A receptor)	IC50 (Dopamine D1 receptor) [nM]	also measured
CC(Cc1cccc(C(F)(F)F)c1)NCCCc1ccccc1 (racemic) [Compound 23, (±) N-[1-(3'-Trifluoromethyl)-2-propyl]-3-phenylpropylamine]	8.75	0.420	20.8 nM	> 10000	25	106			IC50 (sigma-1 binding site; [4]): 8.8 nM; IC50 (sigma-2 binding site [1]): 21 nM
C[C@H](Cc1ccccc1)NCCCc1cccc2ccccc12 [Compound 11, R(-) N-(1-phenyl-2-propyl)-3-(1-naphthyl)propylamine]				> 10000	11	104			IC50 (sigma-1 binding site; [6]): 8.6 nM; reduction in sigma-2 affinity vs. cmp. #1 (sigma-2 binding site [1]; Example 9): about 4 fold
C[C@@H](Cc1ccccc1)NCCCCCc1ccccc1 [Compound 45, N-(5-phenylpentyl)-1-phenyl-2-propylamine]				> 10000			100		IC50 (sigma-1 binding site): 0.88 nM; change in sigma-1 affinity vs. compound No. 1, words (sigma-1 binding site): substantially increases affinity; Ki (sigma-1 binding site; SIGMA-1 KI vs. 3H-P[…]): 0.88 nM; S1/S2 Ratio (sigma-1 binding site; guinea pig, microsomes): .048; Ki (sigma-2 binding site [1]; SIGMA-2 KI vs. 3H-DTG + P[…]): 18.5 nM; IC50 (5-HT1A receptor): 594 nM
Clc1cccc(N2CCN(CCc3ccccc3)CC2)c1 [Compound 32, 1-(3'-Chlorophenyl)-4-(2-phenylethyl)piperazine]	14.9	0.352	42.4 nM	> 10000	.80	8.73			
c1ccc(CCNCCCc2ccc3ccccc3c2)cc1 [Compound 41]				> 10000	7.6	34.7		> 10000	IC50 (Dopamine D2 receptor): 1920 ± 190 nM
c1ccc(N2CCN(CCCc3ccc4ccccc4c3)CC2)cc1 [Compound 51]				> 10000				2990 ± 40	IC50 (Dopamine D2 receptor): 158 ± 28 nM
c1ccc(CCCNC2CCc3ccccc3CC2)cc1 [Compound 49]				> 10000		313	30	> 10000	
CC(Cc1cccc(Br)c1)NCCCc1ccccc1 (racemic) [Compound 20, (±) N-[1-(3'-Bromophenyl)-2-propyl]-3-phenylpropylamine]	9.65	0.369	26.1 nM	> 10000	17	108			IC50 (sigma-1 binding site; [4]): 9.6 nM; IC50 (sigma-2 binding site [1]): 26 nM
CCCC(N)Cc1ccccc1 (racemic) [Compound 34, (±) 1-Phenyl-2-aminopentane]	1180	0.115	10300 nM	> 10000	2.6	6650			
O=C1c2ccccc2C(=O)N1CCCN1CCN(c2ccccc2)CC1 [Compound 96, N-phenyl-N'-(3-(1-phthalimido)propyl)piperazine]	3100		149 nM						IC50 (sigma receptor): 141 nM; sigma-1/sigma-2 ratio (sigma-2 binding site [2]): 87; ratio of sigma-1/sigma-2 (sigma-2 selective compounds) (sigma-2 binding site [2]): greater than 10
C[C@H](Cc1ccccc1)NCCCc1ccccc1 [Compound 1, R(-)N-(1-phenyl-2-propyl)-3-phenylpropylamine]			60.8 nM	> 10000		115		> 10000	IC50 (Dopamine D2 receptor): 4650 ± 430 nM; Ki (sigma-2 binding site [1]; Example 9, read-out: sigma-2 binding affinity): 60 nM; IC50 (sigma-2 binding site [1]): 60 nM
CC(Cc1ccc(I)cc1)NCCCc1ccccc1 (racemic) [Compound 22, (±) N-[1-(4'-Iodophenyl)-2-propyl]-3-phenylpropylamine]	17.7		76 nM	> 10000		202	13	> 10000	IC50 (sigma-1 binding site; [4]): 17.7 nM; S1/S2 Ratio (sigma-1 binding site; guinea pig, microsomes): 0.232; IC50 (sigma-2 binding site [1]): 76 nM
COc1ccc(CC(C)NCCCc2ccccc2)cc1 (centres unmarked) [Compound 19]				> 10000		114	7.6	> 10000	
COc1ccccc1N1CCN(CCCCN2C(=O)c3ccccc3C2=O)CC1 [Compound 120, N-(4-(1-phthalimido)butyl)-N'-(o-methoxyphenyl)piperazine]	512	6.683	76.6 nM						IC50 (sigma receptor): 64.7 nM; sigma-1/sigma-2 ratio (sigma-2 binding site [2]): 7
CC(Cc1ccccc1)NCCCCc1ccccc1 (racemic) [Compound 10, (±) N-(1-phenyl-2-propyl)-4-phenylbutylamine]	4.68	0.088	53.2 nM	> 10000	22	212			change in sigma-1 affinity vs. compound No. 1, words (sigma-1 binding site; Example 8): doubles affinity; IC50 (sigma-1 binding site; Table 14, read-out: IC50 (nM) at sigma-1): 4.7 nM; IC50 ratio of sigma-1/sigma-2 (sigma-1 selective compounds) (sigma-1 binding site; [7]): less than 0.1
C[C@H](Cc1ccccc1)NCCCc1ccc2ccccc2c1 [Compound 12, R(-) N-(1-phenyl-2-propyl)-3-(2-naphthyl)propylamine]	5.73	0.022	258 nM	> 10000	56	132			IC50 (sigma-1 binding site; [6]): 5.7 nM; IC50 ratio of sigma-1/sigma-2 (sigma-1 selective compounds) (sigma-1 binding site; [7]): less than 0.1; reduction in sigma-2 affinity vs. cmp. #1 (sigma-2 binding site [1]; Example 9): about 4 fold
O=C1c2ccccc2C(=O)N1CCCCN1CCN(c2ccccc2)CC1 [Compound 97]	195	9.587	20.4 nM						IC50 (sigma receptor): 20.3 nM; sigma-1/sigma-2 ratio (sigma-2 binding site [2]): 10; ratio of sigma-1/sigma-2 (sigma-2 selective compounds) (sigma-2 binding site [2]): greater than 10
C[C@@H](Cc1ccccc1)NCCCCc1ccccc1 [Compound 44, N-(4-phenylbutyl)-1-phenyl-2-propylamine]				> 10000			40		Ki (sigma-1 binding site; SIGMA-1 KI vs. 3H-P[…]): 19.4 nM; S1/S2 Ratio (sigma-1 binding site; guinea pig, microsomes): .543; Ki (sigma-2 binding site [1]; SIGMA-2 KI vs. 3H-DTG + P[…]): 35.8 nM; IC50 (5-HT1A receptor): 278 nM
OC1(c2ccccc2)CCN(CCCc2ccccc2)CC1 [Compound 40, 4-Hydroxy-4-phenyl-1-(3-phenylpropyl)piperidine]	0.68		9.2 nM and 7.03 nM	> 10000		2960	970	> 10000	IC50 ratio of sigma-1/sigma-2 (sigma-1 selective compounds) (sigma-1 binding site): less than 0.1; S1/S2 Ratio (sigma-1 binding site; guinea pig, microsomes): 0.074 and 0.096
CC(Cc1ccc(Br)cc1)NCCCc1ccccc1 (racemic) [Compound 21, (±) N-[1-(4'-Bromophenyl)-2-propyl]-3-phenylpropylamine]			39.1 nM	> 10000		195			IC50 (sigma-2 binding site [1]): 39 nM
